Test [1] deals with platelet aggregation in platelet-rich plasma (PRP). The experiment in a line: In vitro inhibition of platelet aggregation, method of Born. Type of test: cell-based. The note with it: Oryctolagus cuniculus, read-out: IC50 of diethyl sulphite. Here is the method: (§1) In order to evaluate the effectiveness of diethyl sulphite as an anti-platelet aggregatory agent the following experiments are carried out.
(A) In vitro Platelet-rich plasma (PRP) is prepared from a rabbit and the IC50 value is determined according to the method of Born, "Nature", 194, 927-929 (1962). The IC50 is the estimated concentration of the agent necessary to inhibit 50 percent of the platelet aggregation. The data tabulated below is obtained.

Another test deals with platelet aggregation. The experiment in a line: Ex vivo inhibition of platelet aggregation after injection into a rabbit. As to conditions: 219 mg injected, 3.06 kg rabbit, about 10 millimolar in blood, 10 minutes. As for the experimental part: as §1
(B) Ex vivo A rabbit weighing 3.06 kg is injected with 219 mg of diethyl sulphite to give a concentration of about 10 millimolar diethyl sulphite in the blood. After 10 minutes, a blood sample is withdrawn and the percent inhibition of platelet aggregation, as compared to a blood sample taken before injection, is determined.

The next test has as its system thrombotic disorders. Nature of the test: Treatment of thrombotic disorders in rats. The note with it: aqueous suspension, e.g. 0.5 to 2.5 millimolar. Type of test: in vivo, rat. As for the experimental part: (§2) Dimethyl sulphite and diethyl sulphite are successively prepared by esterifying 2 moles of each respective alkanol with 1 mole of thionyl chloride. The diethyl ester is a colourless liquid (b.p. 159°) with an aromatic odour, believed to have the following formula: [drawing 17] A composition based on this compound, e.g. an aqueous suspension having a concentration in the range from 0.5 to 2.5 millimolar, is effective in the treatment of thrombotic and hypertensive disorders in rats. It is theorized to be activated in vivo by virtue of its conversion to sulphite ions.

In a further test the test system is hypertensive disorders. Nature of the test: Treatment of hypertensive disorders in rats. As to conditions: aqueous suspension, e.g. 0.5 to 2.5 millimolar. It is filed as in vivo, rat. As for the experimental part:
as §2

Like-named read-outs stand apart in the source and are kept apart here.

What is called IC50 is the point on the concentration scale where inhibition reaches its midpoint. As to `CCOS(=O)OCC` [diethyl sulphite], the IC50 in test [1] (stimulus: U-46619, rabbit PRP) turned out to be 11 mM; in test [1] (stimulus: adenosine diphosphate (ADP), rabbit PRP), 35 mM; in test [1] (stimulus: arachidonic acid, rabbit PRP) it was 6.25 mM. Besides, the figures for the “percent inhibition of platelet aggregation” value in the test on platelet aggregation (stimulus: ADP), with platelet aggregation (stimulus: U-46619) and in the test on platelet aggregation (stimulus: arachidonic acid) were 29%, 12% and 0%, respectively. Also, the “effectiveness in the treatment of thrombotic disorders” value in the test on thrombotic disorders is reported as “effective”. For the same molecule, the “effectiveness in the treatment of hypertensive disorders” value with hypertensive disorders was “effective”.

Source of the values: patent publication US4555522A, “Antithrombotic and/or antihypertensive compositions” (T & R Chemicals, Inc., priority 1983, dated 1985).
